Source: patent publication US6528532B1, “Urea derivatives as HIV aspartyl protease inhibitors” (Pharmacor Inc., priority 2002, dated 2003)

Biological target: HIV protease (Human immunodeficiency virus type 1 group M subtype B, UniProt P04585)
Test: Enzymatic (FRET fluorometric) assay for determining the inhibition constant (Ki) of compounds targeting the HIV protease
Format: biochemical
Conditions: FRET substrate (EDANS/DABCYL), equation of Henderson; read-out: Ki
Excerpt: Enzymatic Assay for Determining the Inhibition Constant (Ki) of Synthetic Compounds Targeting the HIV Protease
This is a fluorometric assay based on the cleavage by protease of a substrate carrying a donor group (EDANS) and an acceptor group (DABCYL) on each side of the cleavage site, interacting together through fluorescence resonance energy transfer (FRET) as described by Matayoshi et al. (Science 247:[…], 1990).
After calculation of Vo and Vi, the inhibition constant (Ki) of the compound is determined using the equation of Henderson: [formula]
where Vo=the enzyme's initial velocity
Vi=the enzyme velocity in the presence of the inhibitory compound,
[I]=inhibitor concentration, [S]=substrate concentration,
Km=Michaelis-Menten constant and Kiapp=apparent Ki
Graphs are traced and the Ki determined using GraphPad Prism software v. 3.0.

Row | SMILES | Ki
1 | Cc1ccc(S(=O)(=O)N(CC(C)C)[C@@H](CCCCNC(=O)NCc2ccccc2)C(=O)O)cc1 [Example 2, Nα-Isobutyl-Nα-(4-methylbenzenesulfonyl)-Nε-(benzylaminocarbonyl)-L-lysine] | 32 nM
2 | Cc1ccc(S(=O)(=O)N(CC(C)C)[C@@H](CCCCNC(=O)NCCc2c[nH]c3ccccc23)C(=O)O)cc1 [Example 6, Nα-Isobutyl-Nα-(4-methylbenzenesulfonyl)-Nε-[2′-(3-indolyl)ethylaminocarbonyl]-L-lysine] | 40 nM
3 | Cc1ccc(S(=O)(=O)N(CC(C)C)[C@@H](CCCCNC(=S)NCCc2c[nH]c3ccccc23)C(=O)O)cc1 [Example 15] | 111 nM
4 | Cc1ccc(S(=O)(=O)N(CC(C)C)[C@@H](CCCCNC(=S)NCc2ccccc2)C(=O)O)cc1 [Example 16, Nα-Isobutyl-Nα-(4-methylbenzenesulfonyl)-Nε-benzylaminothiocarbonyl-L-lysine] | 152 nM
5 | CC(C)CN([C@@H](CCCCNC(=O)NCc1ccccc1)C(=O)O)S(=O)(=O)c1ccc(N)cc1 [Example 18, Nα-(4-Aminobenzenesulfonyl)-Nα-isobutyl-Nε-benzylaminocarbonyl-L-lysine] | 200 nM
6 | Cc1ccc(S(=O)(=O)N(CC(C)C)[C@@H](CCCCNC(=O)NCCc2ccccc2)C(=O)O)cc1 [Example 21, Nα-Isobutyl-Nα-(4-methylbenzenesulfonyl)-Nε-(phenethylaminocarbonyl)-L-lysine] | 167 nM
7 | Cc1ccc(S(=O)(=O)N(CC(C)C)[C@@H](CCCCNC(=O)N[C@@H]2CCc3ccccc32)C(=O)O)cc1 [Example 24, (1S,1′R) Nα-Isobutyl-Nα-(4-methylbenzenesulfonyl)-Nε-(indanyl-1′-aminocarbonyl)-S-lysine] | 196 nM
8 | Cc1ccc(S(=O)(=O)N(CC(C)C)[C@@H](CCCCNC(=NC#N)NCc2ccccc2)C(=O)O)cc1 [Example 28, Nα-Isobutyl-Nα-(4-methylbenzenesulfonyl)-Nε-(benzylaminocarbonyl-N-cyanoamidine)-L-lysine] | 63 nM
9 | Cc1ccc(S(=O)(=O)N(CC(C)C)C(CCCCNC(=NC#N)NCCc2c[nH]c3ccccc23)C(=O)O)cc1 [Example 29, Nα-Isobutyl-Nα-(4-methylbenzenesulfonyl)-Nε-[2′-(3-indolyl)ethylaminocarbonyl-N-cyanoamidine]-L-lysine] | 8.2 nM
10 | Cc1ccc(S(=O)(=O)N(CC(C)C)[C@@H](CCCCNC(=O)N(Cc2ccccc2)Cc2ccccc2)C(=O)O)cc1 [Example 32, Nα-Isobutyl-Nα-(4-methylbenzenesulfonyl)-Nε-(N′,N′-dibenzylaminocarbonyl)-L-lysine] | 7.2 nM
11 | Cc1ccc(S(=O)(=O)N(CC(C)C)[C@H](CO)CCCCNC(=O)N(Cc2ccccc2)Cc2ccccc2)cc1 [Example 33, (2S) 2-N-Isobutyl-2-N-(4-methylbenzenesullonyl)-6-N-(N′,N′-dibenzylaminocarbonyl)-2,6-diaminohexanol] | 17 nM
12 | Cc1ccc(S(=O)(=O)N(CC(C)C)[C@H](CO)CCCCNC(=S)N(Cc2ccccc2)Cc2ccccc2)cc1 [Example 34, (2S) 2-N-Isobutyl-2-N-(4-methylbenzenesulfonyl)-6-N-(N′,N′-dibenzylaminothiocarbonyl)-2,6-diaminohexanol] | 78 nM
13 | CC(C)CN([C@@H](CCCCNC(=O)N(Cc1ccccc1)Cc1ccccc1)C(=O)O)S(=O)(=O)c1ccc(N)cc1 [Example 36, Nα-(4-Aminobenzenesulfonyl)-Nα-isobutyl-Nε-(N′,N′-dibenzylaminocarbonyl)-L-lysine] | 1.8 nM
14 | Cc1ccc(S(=O)(=O)N(CC(C)C)[C@@H](CCCCNC(=S)N(Cc2ccccc2)Cc2ccccc2)C(=O)O)cc1 [Example 37, Nα-Isobutyl-Nα-(4-methylbenzenesulfonyl)-Nε-(N′,N′-dibenzylaminothiocarbonyl)-L-lysine] | 12 nM
15 | Cc1ccc(S(=O)(=O)N(CC(C)C)[C@@H](CCCCNC(=O)N(Cc2ccccc2)Cc2ccncc2)C(=O)O)cc1 [Example 38, Nα-Isobutyl-Nα-(4-methylbenzenesulfonyl)-Nε-[N′-benzyl-N′-(4-picolyl)aminocarbonyl]-L-lysine] | 3.7 nM
16 | Cc1ccc(S(=O)(=O)N(CC(C)C)[C@@H](CCCCNC(=O)N(Cc2ccccc2)C(C)C)C(=O)O)cc1 [Example 39, Nα-Isobutyl-Nα-(4-methylbenzenesulfonyl)-Nε-[(N′-benzyl-N′-iso-propyl)aminocarbonyl]-L-lysine] | 19 nM
17 | Cc1ccc(S(=O)(=O)N(CC(C)C)[C@@H](CCCCNC(=O)N(C)Cc2ccccc2)C(=O)O)cc1 [Example 40, Nα-Isobutyl-Nα-(4-methylbenzenesulfonyl)-Nε-[(N′-benzyl-N′-methyl)aminocarbonyl]-L-lysine] | 55 nM

Row | SMILES | Ki
18 | CC(C)CN([C@H](CO)CCCCNC(=O)N(Cc1ccccc1)Cc1ccccc1)S(=O)(=O)c1ccc(N)cc1 [Example 41, (2S) 2-N-(4-Aminobenzenesulfonyl)-2-N-isobutyl-6-N-(N′,N′-dibenzylaminocarbonyl)-2,6-diaminohexanol] | 12 nM
19 | Cc1ccc(S(=O)(=O)N(CC(C)C)[C@@H](CCCCNC(=O)N(Cc2ccccc2)Cc2cccnc2)C(=O)O)cc1 [Example 42, Nα-Isobutyl-Nα-(4-methylbenzenesulfonyl)-Nε-[N′-benzyl-N′-(3-picolyl)aminocarbonyl]-L-lysine] | 3.7 nM
20 | COc1ccc(CN(Cc2ccncc2)C(=O)NCCCC[C@@H](C(=O)O)N(CC(C)C)S(=O)(=O)c2ccc(C)cc2)cc1 [Example 43, Nα-Isobutyl-Nα-(4-methylbenzenesulfonyl)-Nε-[N′-(4-methoxybenzyl)-N′-(4-picolyl)aminocarbonyl]-L-lysine] | 7.9 nM
21 | Cc1ccc(S(=O)(=O)N(CC(C)C)[C@@H](CCCCNC(=O)N(Cc2ccncc2)Cc2ccncc2)C(=O)O)cc1 [Example 44, Nα-Isobutyl-Nα-(4-methylbenzenesulfonyl)-Nε-[N′,N′-di-(4-picolyl)aminocarbonyl]-L-lysine] | 187 nM
22 | COc1ccc(CN(Cc2ccncc2)C(=O)NCCCC[C@@H](CO)N(CC(C)C)S(=O)(=O)c2ccc(C)cc2)cc1 [Example 45, (2S) 2-N-Isobutyl-2-N-(4-methylbenzenesulfonyl)-6-N-[N′-(4-methoxybenzyl)-N′-(4-picolyl)aminocarbonyl]-2,6-diaminohexanol] | 54 nM
23 | CC(C)CN([C@@H](CCCCNC(=O)N(Cc1ccccc1)Cc1cccnc1)C(=O)O)S(=O)(=O)c1ccc(N)cc1 [Example 47, Nα-(4-Aminobenzenesulfonyl)-Nα-isobutyl-Nε-[N′-benzyl-N′-(3-picolyl)aminocarbonyl]-L-lysine] | 2.4 nM
24 | CC(C)CN([C@@H](CCCCNC(=O)N(Cc1ccccc1)Cc1ccncc1)C(=O)O)S(=O)(=O)c1ccc(N)cc1 [Example 48, Nα-(4-Aminobenzenesulfonyl)-Nα-isobutyl-Nε-[N′-benzyl-N′-(4-picolyl)aminocarbonyl]-L-lysine] | 12 nM
25 | COc1ccc(CN(Cc2ccncc2)C(=O)NCCCC[C@@H](C(=O)O)N(CC(C)C)S(=O)(=O)c2ccc(N)cc2)cc1 [Example 49, Nα-(4-Aminobenzenesulfonyl)-Nα-isobutyl-Nε-[N′-(4-methoxybenzyl)-N′-(4-picolyl)aminocarbonyl]-L-lysine] | 12 nM
26 | CC(C)CN([C@H](CO)CCCCNC(=O)N(Cc1ccccc1)Cc1cccnc1)S(=O)(=O)c1ccc(N)cc1 [Example 50, (2S) 2-N-(4-Aminobenzenesulfonyl)-2-N-isobutyl-6-N-[N′-benzyl-N′-(3-picolyl)aminocarbonyl]-2,6-diaminohexanol] | 34 nM
27 | CC(C)CN([C@H](CO)CCCCNC(=O)N(Cc1ccccc1)Cc1ccncc1)S(=O)(=O)c1ccc(N)cc1 [Example 52, (2S) 2-N-(4-Aminobenzenesulfonyl)-2-N-isobutyl-6-N-[N′-benzyl-N′-(4-picolyl)aminocarbonyl]-2,6-diaminohexanol] | 90 nM
28 | COc1ccc(CN(Cc2ccncc2)C(=O)NCCCC[C@@H](CO)N(CC(C)C)S(=O)(=O)c2ccc(N)cc2)cc1 [Example 53, (2S) 2-N-(4-Aminobenzenesulfonyl)-2-N-isobutyl-6-N-[N′-(4-methoxybenzyl)-N′-(4-picolyl)aminocarbonyl]-2,6-diaminohexanol] | 90 nM
29 | Cc1ccc(S(=O)(=O)N(CC(C)C)[C@@H](CCCCNC(=O)N(Cc2ccccc2)Cc2ccccc2[N+](=O)[O-])C(=O)O)cc1 [Example 54, Nα-Isobutyl-Nα-(4-methylbenzenesulfonyl)-Nε-[N′-benzyl-N′-(2-nitrobenzyl)aminocarbonyl]-L-lysine] | 0.9 nM
30 | Cc1ccc(S(=O)(=O)N(CC(C)C)[C@@H](CCCCNC(=O)N(Cc2ccccc2)Cc2cccc([N+](=O)[O-])c2)C(=O)O)cc1 [Example 55, Nα-Isobutyl-Nα-(4-methylbenzenesulfonyl)-Nε-[N′-benzyl-N′-(3-nitrobenzyl)aminocarbonyl]-L-lysine] | 1.1 nM
31 | Cc1ccc(S(=O)(=O)N(CC(C)C)[C@@H](CCCCNC(=O)N(Cc2ccccc2)Cc2ccc([N+](=O)[O-])cc2)C(=O)O)cc1 [Example 56, Nα-Isobutyl-Nα-(4-methylbenzenesulfonyl)-Nε-[N′-benzyl-N′-(4-nitrobenzyl)aminocarbonyl]-L-lysine] | 1.5 nM
32 | Cc1ccc(S(=O)(=O)N(CC(C)C)[C@@H](CCCCNC(=O)N(Cc2ccccc2)Cc2ccccc2N)C(=O)O)cc1 [Example 57, Nα-Isobutyl-Nα-(4-methylbenzenesulfonyl)-Nε-[N′-(2-ninobenzyl)-N′-benzylaminocarbonyl]-L-lysine] | 1.7 nM
33 | Cc1ccc(S(=O)(=O)N(CC(C)C)[C@H](CO)CCCCNC(=O)N(Cc2ccccc2)Cc2ccccc2N)cc1 [Example 62, (2S) 2-N-Isobutyl-2-N-(4-methylbenzenesulfonyl)-6-N-[N′-(2-aminobenzyl)-N′-benzylaminocarbonyl]-2,6-diaminohexanol] | 39 nM
